Test results published in ChEMBL document CHEMBL5046279, “Discovery of a Partial Glucokinase Activator Clinical Candidate: Diethyl ((3-(3-((5-(Azetidine-1-carbonyl)pyrazin-2-yl)oxy)-5-isopropoxybenzamido)-1H-pyrazol-1-yl)methyl)phosphonate (BMS-820132)” (J Med Chem, 2022).
Calls of active or inactive are those of the source.

Columns and labels:
Type in all cases: functional, organism-based
Mus musculus [1] = organism: Mus musculus; assay: Anti-hyperglycemic activity in C57BL/6J DIO mouse assessed as reduction in plasma glucose level incubated for 1 hr by OGTT; settings: dose 1-10 µM/Kg
Mus musculus [2] = assay: Anti-hyperglycemic activity in C57BL/6J DIO mouse assessed as reduction in plasma glucose level at 0.3 umol/kg at 120 mins post dose by OGTT; settings: dose 0.3 µM/Kg
Mus musculus [3] = assay: Anti-hyperglycemic activity in C57BL/6J DIO mouse assessed as reduction in plasma glucose level at 3 to 30 umol/kg measured on day 1 by OGTT; settings: dose 3-30 µM/Kg

Measured: Activity

CCOP(=O)(Cn1ccc(NC(=O)c2cc(Oc3cnc(C(=O)N4CCC4)cn3)cc(OC(C)C)c2)n1)OCC
active: Mus musculus [1] Dose-Dependent Effect | Mus musculus [2] | Mus musculus [3]
